Measured values: patent US4062959A, “N-methyl-imidazole derivatives for treating mycotic infections” (Bayer Aktiengesellschaft, priority 1970, dated 1977)
In brackets after ≈: the same amount, converted by molar mass.

What was measured:
Test in all cases: Anti-mycotic action in vitro (MIC, serial dilution test)
Type in all cases: cell-based
Microsporon felineum = details: 28° C, 24 to 96 hours; Sabouraud's test medium (Dermatophytes); dilution series 100-40-20-10-4-1; read-out: Minimal inhibitory concentration (MIC), Microsporon felineum
Method: (§1) The Table summarises the anti-mycotic actions in vitro of several preparations towards several species of fungi:
(§2) The MIC determination was carried out in a serial dilution test, in the dilution series 100-40-20-10-4-1 γ/ml of substrate. The following were used as nutrient substrates:
(§3) a. for Dermatophytes: Sabouraud's test medium
(§4) The incubation temperature was 28° C, and the incubation time was 24 to 96 hours.

[1] = tested on: Trichophyton mentagrophytes; details: 28° C, 24 to 96 hours, Sabouraud's test medium (Dermatophytes), dilution series 100-40-20-10-4-1, read-out: Minimal inhibitory concentration (MIC), Trichophyton mentagrophytes
Method: as §1, §2, §3, §4

Candida albicans = details: 28° C, 24 to 96 hours, meat water-glucose-bouillon (yeasts), dilution series 100-40-20-10-4-1, read-out: Minimal inhibitory concentration (MIC), Candida albicans
Method: as §1, §2
b. for yeasts: meat water -- glucose -- bouillon.
as §4

Aspergillus niger = details: 28° C, 24 to 96 hours, dilution series 100-40-20-10-4-1, read-out: Minimal inhibitory concentration (MIC), Aspergillus niger
Method: as §1, §2, §4

Penicillium commune = details: 28° C, 24 to 96 hours, dilution series 100-40-20-10-4-1, read-out: Minimal inhibitory concentration (MIC), Penicillium commune
Method: as §1, §2, §4

MIC (Microsporon felineum) | MIC [1] | MIC (Candida albicans) | MIC (Aspergillus niger) | MIC (Penicillium commune) | Compound
4 mg/L (≈ 12.1 µM) | < 1 mg/L | 4 mg/L (≈ 12.1 µM) | 4 mg/L (≈ 12.1 µM) | 4 mg/L (≈ 12.1 µM) | Fc1ccc(C(c2ccccc2)(c2cnccn2)n2ccnc2)cc1 (stereo not drawn) [Example 3, 4-Fluorophenyl-phenyl-pyrazyl-imidazol-1-yl-methane]
10 mg/L (≈ 32 µM) | 4 mg/L (≈ 12.8 µM) | 40 mg/L (≈ 128 µM) | 10 mg/L (≈ 32 µM) | 40 mg/L (≈ 128 µM) | c1ccc(C(c2ccccc2)(c2cnccn2)n2ccnc2)cc1 [Example 2, Diphenyl-pyrazyl-imidazol-1-yl-methane]
40 mg/L (≈ 128 µM) | 4 mg/L (≈ 12.8 µM) | 40 mg/L (≈ 128 µM) | 10 mg/L (≈ 32 µM) | 100 mg/L (≈ 320 µM) | c1ccc(C(c2ccccc2)(c2cncnc2)n2ccnc2)cc1 [Example 1, Diphenyl-pyrimid-5-yl-imidazol-1-yl-methane]
